The values below are quoted from earlier work in the CATMoS acute toxicity set (Mansouri et al. 2021).

What is called LD50 is the dose at which mortality reaches 50%.

A short description of the series: rat acute oral toxicity. The settings on record: in vivo. From the text:
[…]The data set underlying the modeling effort for this project was initially compiled by NICEATM and U.S. EPA’s CCTE. Briefly, LD50 data were collected from rat acute oral systemic toxicity tests, including limit tests, ranges/confidence intervals, and discrete LD50 values. The full data set included 21,200 LD50 entries for 15,688 substances. […] Data were reviewed to ensure that LD50 values with obvious errors in the extracted data such as unit conversion errors (e.g., comma and decimal separator misplacements) were either fixed or removed. After this review, 16,209 LD50 values remained. Many of the chemicals represented had multiple LD50 entries, requiring that a single representative value per Chemical Abstracts Service Registry Number (CASRN) identifier be defined to facilitate modeling efforts. Based on ATWG feedback and to define the representative LD50 as a protective value while accounting for the distribution across multiple LD50s, the median of the lowest quartile was computed using only discrete LD50 values (omitting limit test data and range and confidence interval data). A detailed summary of the data compilation is available online on the NICEATM webpage dedicated to the collaborative modeling project (NTP 2020).
[…][…] For categorical designations, limit test and range/confidence interval LD50 data were integrated wherever possible. As such, the number of chemicals with end point values/calls varies across the modeling end points (Table 3) based on whether chemicals had representative LD50 values and/or other data. If a chemical had both, the representative value was used to determine categorical calls rather than limit test data. Some data were useable only for certain end points and categories depending on the thresholds. For example, ranges that spanned multiple hazard categories were considered only for the binary (very toxic/nontoxic) end points and omitted from rendering a determination for hazard category assignment.
[…]The final data set comprising 11,992 chemicals was split into training and evaluation sets […], respectively. This process was performed semirandomly by ordering chemicals based on the five end points (categorical and continuous LD50 values) and partitioning every fourth record into the evaluation set accordingly. This approach was taken to ensure an equivalent distribution of the LD50 values and the different hazard categories between the training and the evaluation sets without supervised sampling of the chemicals based on structures (Figure 1A). The sources of the chemical structures were also kept equivalent between the two sets, with chemical structures obtained from DSSTox, being the highest quality, representing over 75% of each set (Figure 1B).
As to `COc1cc(CCC(C)=O)ccc1O`, the LD50 is 2580 mg/kg.
Turning to `COc1cc(C2NC(=O)CCS2)cc(OC)c1OC` (stereo not drawn), the 50% lethal dose (LD50) is 5400 mg/kg.
For the molecule `C=CCOC=O`, the LD50 was 124 mg/kg.
As to `CNCC1CCCCC1`, the 50% lethal dose (LD50) is 1410 mg/kg.
Consider `C#CCC1=C(C)C(OC(=O)C2C(C=C(C)C)C2(C)C)CC1=O` (stereo not drawn), for which the LD50 is 460 mg/kg.
For the molecule `CS(=O)(=O)OC[C@@H]1O[C@H]1[C@@H]1O[C@H]1COS(C)(=O)=O`, the LD50 is 225 mg/kg.
Take `CC(C(=O)O)c1ccc2oc(-c3ccc(F)cc3)nc2c1` (stereo not drawn): the LD50 is 521 mg/kg.
As to `COc1ccc(C(C)=O)cc1`, the LD50 was 1720 mg/kg.
For the molecule `CC1(C)C2CCC(C=O)C1C2` (stereo not drawn), the LD50 was 2300 mg/kg.
As to `C[C@H](N)Cc1ccccc1`, the LD50 was 38 mg/kg.
Consider `CCCN=C(N)C(OCC)c1ccccc1` (stereo not drawn), for which the LD50 is 530 mg/kg.
`NC(=S)SSC(N)=S`: the LD50 was 1950 mg/kg.
As for `CNC(=O)c1cc(OC)n(-c2cccc(Cl)c2)n1`, the median lethal dose (LD50) is 1540 mg/kg.
Turning to `CC(C(=O)O)c1ccc2c(c1)CC(C(C)C)C2` (stereo not drawn), the LD50 is 1500 mg/kg.
In the case of `CCCCCCCCCCCCCC[N+](C)(C)C`, the LD50 is 3900 mg/kg.
Regarding `CSCC(=O)N(C)C(=O)Oc1ccccc1OC(C)C`, the median lethal dose (LD50) was 650 mg/kg.
As for `C=Cc1ccncc1`, the LD50 is 100 mg/kg.
For the molecule `C=CCC(N)Cc1ccccc1` (stereo not drawn), the median lethal dose (LD50) is 680 mg/kg.
`CCCCCCCCc1ccc(C(CBr)OCCCC)cc1` (stereo not drawn): the LD50 was 250 mg/kg.
On to `Cc1ncc(C[n+]2csc(CCO)c2C)c(N)n1`, for which the LD50 was 3710 mg/kg.
Consider `ClCNc1cc(Cl)ccc1Oc1ccc(Cl)cc1`, for which the LD50 was 726 mg/kg.
In the case of `Cc1c(Cl)cc2[nH]c(C(F)(F)F)nc2c1[N+](=O)[O-]`, the median lethal dose (LD50) was 31.4 mg/kg.
Take `COP(=S)(OC)SCN1C(=O)CCC1=O`: the median lethal dose (LD50) was 7 mg/kg.
Regarding `CCN(CCN(C)C)c1ccccc1`, the 50% lethal dose (LD50) was 1150 mg/kg.
As to `CN(C)c1ccc(-c2nc(=O)n(C)nc2-c2ccc(N(C)C)cc2)cc1`, the median lethal dose (LD50) is 3000 mg/kg.
As to `CN(C)c1ccc(C(=N)c2ccc(N(C)C)cc2)cc1`, the median lethal dose (LD50) is 3000 mg/kg.
On to `COc1cnc(C)s1`, for which the 50% lethal dose (LD50) was 1250 mg/kg.
Consider `CN(C)C(O)=Nc1ccc(-n2nc(C(C)(C)C)oc2=O)c(Cl)c1`, for which the LD50 was 1000 mg/kg.
On to `Cc1ccc(CN(C)N=O)cc1`, for which the LD50 is 400 mg/kg.
Regarding `CCC(CC)COC(=O)CCCCC(=O)OCC(CC)CC`, the median lethal dose (LD50) is 5620 mg/kg.
`Cc1cccnc1N`: the LD50 is 100 mg/kg.
Take `O=C(O)c1cccc(O)c1O`: the 50% lethal dose (LD50) was 1800 mg/kg.
Regarding `CN(C)CC(=O)N1Cc2ccccc2CC2CCCCC21` (stereo not drawn), the LD50 was 1400 mg/kg.
For the molecule `CNC(=O)ON=C1SC(=NN(C)C)SC1(C)C`, the 50% lethal dose (LD50) is 1.8 mg/kg.
Regarding `C=CC(OC(C)=O)OC(C)=O`, the LD50 was 35 mg/kg.
Regarding `CN(SSC(C)(C)C)C(=O)ON=C1SC(C)(C)C(=O)N1C`, the LD50 was 299 mg/kg.
In the case of `CC1(C)S[C@@H]2[C@H](NC(=O)C3(N)CCCCC3)C(=O)N2[C@H]1C(=O)O`, the median lethal dose (LD50) is 5010 mg/kg.
For the molecule `CCCCc1c(OC(=O)c2cccs2)n(-c2ccccc2)n(-c2ccccc2)c1=O`, the LD50 is 1180 mg/kg.
Regarding `CC(C)=NNC(=O)CSc1cc(Oc2ccc(F)cc2)ncn1`, the 50% lethal dose (LD50) was 380 mg/kg.
Turning to `CCOC(=O)C(CC)(C(=O)NCCN(CC)CC)c1ccccc1` (stereo not drawn), the 50% lethal dose (LD50) was 610 mg/kg.
On to `O=P(OCC(Cl)CCl)(OCC(Cl)CCl)OCC(Cl)CCl` (stereo not drawn), for which the LD50 was 2830 mg/kg.
Regarding `CC(C=O)Cc1ccc(C(C)C)cc1` (stereo not drawn), the LD50 was 3810 mg/kg.
With `CN(C)C(=S)c1ccc2c(c1)OCO2`, the LD50 was 79 mg/kg.
Take `CC(=O)C(C)=Cc1ccccc1`: the median lethal dose (LD50) was 4100 mg/kg.
Regarding `O=[n+]1c2ccccc2n([O-])c2ccc3ccccc3c21`, the LD50 is 4620 mg/kg.
For the molecule `CN(c1ccc(F)cc1F)c1c([N+](=O)[O-])cc([N+](=O)[O-])cc1C(F)(F)F`, the LD50 was 250 mg/kg.
In the case of `Cc1cc2[nH]c(C(F)(F)F)nc2cc1Br`, the LD50 is 77 mg/kg.
In the case of `Cc1ccc(-c2ccccc2)cc1`, the LD50 was 2570 mg/kg.
As to `Nc1ccc(C(=O)O)c(O)c1`, the LD50 was 8000 mg/kg.
Regarding `COc1ccc2c(=O)oc3c(OC)cc(CCN(C)C)c4c(=O)oc1c2c34`, the LD50 was 518 mg/kg.
As to `CCCCN(CCN(CCCC)C(=O)N1CCOCC1)C(=O)N1CCOCC1`, the LD50 was 270 mg/kg.
For the molecule `Cc1nc(-c2cccnc2)sc1[N+](=O)[O-]`, the LD50 was 815 mg/kg.
On to `CCCC[C@H](C)[C@H](O)C#C[C@H]1CCC(=O)[C@@H]1CC=CCCCC(=O)OC`, for which the median lethal dose (LD50) is 338 mg/kg.
For the molecule `C#CCON=CC1=CCCNC1`, the LD50 is 80 mg/kg.
Consider `COc1cc(NS(=O)(=O)c2ccc(N)cc2)ncn1`, for which the LD50 was 5620 mg/kg.
Regarding `CC1=CCC(=O)O1`, the median lethal dose (LD50) is 3900 mg/kg.
Consider `C=C1/C(=C\C=C2/CCC[C@]3(C)[C@@H]([C@H](C)CCCC(C)(C)O)CC[C@@H]23)C[C@@H](O)C[C@@H]1O`, for which the LD50 was 0.62 mg/kg.
Consider `COP(=O)(OC)SCCSC`, for which the LD50 is 20 mg/kg.
Regarding `O=C1C(CCSc2ccccc2)C(=O)N(c2ccccc2)N1c1ccccc1`, the 50% lethal dose (LD50) was 450 mg/kg.
With `CC(=O)C=CC1=C(C)CCCC1(C)C`, the LD50 is 4590 mg/kg.
For `C(=NC1CCCCC1)c1ccccc1`, the median lethal dose (LD50) was 3080 mg/kg.
With `Oc1ccc(C(O)CCNCCCSc2ccccc2)cc1` (stereo not drawn), the LD50 is 650 mg/kg.
Take `CCOC(=O)CCC1(CCC(=O)OCC)c2ccccc2-c2ccccc21`: the 50% lethal dose (LD50) is 6170 mg/kg.
`O=NN(CCCl)C(=O)NC1CCCCC1`: the LD50 is 70 mg/kg.
Consider `FC(F)(F)c1cccc(CNC2=NCCS2)c1`, for which the LD50 is 50 mg/kg.
For the molecule `CCN(CC)N=Nc1ccccc1`, the LD50 was 520 mg/kg.
Regarding `CC(C)c1ccccc1N`, the LD50 was 1180 mg/kg.
For the molecule `Nc1cccc2cc(S(=O)(=O)O)ccc12`, the LD50 was 14200 mg/kg.
Regarding `CCOC(=O)CC`, the LD50 is 8730 mg/kg.
Regarding `Cc1ccccc1C1OCC(O)CO1` (mixture of isomers), the LD50 was 3400 mg/kg.
Regarding `COP(=S)(OC)SCCSc1ccc(Cl)cc1`, the LD50 is 100 mg/kg.
Regarding `S=C1SSC2=NCCN12`, the LD50 is 380 mg/kg.
Regarding `CCCCNC(=N)NC(=N)N`, the LD50 was 320 mg/kg.
`CNCCON=C1c2ccccc2CCc2ccccc21`: the 50% lethal dose (LD50) is 860 mg/kg.
Turning to `Fc1c(F)c(F)c2[nH]c(C(F)(F)F)nc2c1F`, the LD50 was 3.33 mg/kg.
For `CCc1cc2c(s1)-n1c(C)nnc1CN=C2c1ccccc1Cl`, the LD50 was 3510 mg/kg.
In the case of `CCOP(=S)(OCC)SCc1ccc([N+](=O)[O-])cc1`, the LD50 was 100 mg/kg.
For the molecule `CC(=O)Oc1cc(C(C)C)c(OCCN(C)C)cc1C`, the LD50 was 740 mg/kg.
Regarding `CCCC(C(=O)OCCN(CC)CC)(c1ccccc1)c1ccccc1`, the LD50 was 2140 mg/kg.
Regarding `C#CCSP(=O)(NC(=O)CC)OC` (stereo not drawn), the LD50 was 500 mg/kg.
Consider `c1ccc(-c2cccc(-c3ccccc3)c2)cc1`, for which the LD50 is 2400 mg/kg.
As to `CCCCOC(=S)SC(=S)OCCCC`, the median lethal dose (LD50) was 1400 mg/kg.
As for `Clc1c(Cl)c(Cl)c2c(c1Cl)Oc1ccccc1O2`, the LD50 is 0.8 mg/kg.
As to `O=C(O)c1c(O)c(O)cc2ccccc12`, the LD50 was 24500 mg/kg.
With `CC(N)CC(C)(C)N` (stereo not drawn), the median lethal dose (LD50) is 431 mg/kg.
Regarding `CCCCc1ccc(C(=O)O)nc1`, the LD50 is 480 mg/kg.
For the molecule `CC(=O)OC(c1ccc(Cl)c(Cl)c1)C(Cl)(Cl)Cl` (stereo not drawn), the LD50 was 10000 mg/kg.
As to `O=[N+]([O-])c1cc([N+](=O)[O-])c(Cl)c(S(=O)(=O)O)c1`, the 50% lethal dose (LD50) is 1460 mg/kg.
With `C=CCn1ccc(=O)c(O)c1C`, the LD50 was 800 mg/kg.
For `NC(C(=O)O)c1ccccc1` (stereo not drawn), the LD50 was 3030 mg/kg.
On to `O=C1C=CC(=O)N1c1ccc(Cl)cc1`, for which the LD50 is 440 mg/kg.
Turning to `CCCCc1ccn[nH]1`, the median lethal dose (LD50) was 509 mg/kg.
`CCOP(=S)(OCC)SCn1nc(Br)ccc1=O`: the LD50 is 30 mg/kg.
`CCOC(=O)OC(=O)OCC`: the 50% lethal dose (LD50) was 850 mg/kg.
On to `Cc1c(N(C)C)c(=O)n(-c2ccccc2)n1C`, for which the median lethal dose (LD50) is 285 mg/kg.
As for `C=CC(=O)NCO`, the median lethal dose (LD50) is 474 mg/kg.
With `CC(C=O)=Cc1ccccc1`, the LD50 was 2050 mg/kg.
On to `CCOP(=S)(OCC)SCSC(C)C`, for which the median lethal dose (LD50) is 1.1 mg/kg.
Regarding `CCCCc1c(OC(=O)C23CC4CC(CC(C4)C2)C3)n(-c2ccccc2)n(-c2ccccc2)c1=O`, the median lethal dose (LD50) is 1700 mg/kg.
As for `CC(C)(N)Cc1ccccc1Cl`, the median lethal dose (LD50) was 332 mg/kg.
On to `CCOP(=S)(NC(C)CC)Oc1cc(C)ccc1[N+](=O)[O-]` (stereo not drawn), for which the LD50 was 630 mg/kg.
For `C=CCN(CC=C)N=O`, the LD50 was 800 mg/kg.
With `Nc1ncnc2c1ncn2[C@@H]1O[C@H](COP(=O)(O)O)[C@@H](O)[C@H]1O`, the LD50 was 11200 mg/kg.
For the molecule `CCOC(C1=NCCCN1)c1ccc(Cl)cc1` (stereo not drawn), the median lethal dose (LD50) was 875 mg/kg.
For `CCOC(=O)CCC(=O)OCC`, the median lethal dose (LD50) was 8530 mg/kg.
Consider `CCOc1cc(OCC)c(C(=O)CCC(=O)O)cc1OCC`, for which the LD50 was 2450 mg/kg.
Consider `CSC(C)=NOC(=O)N(C)SN(C)C(=O)Oc1ccc(C(C)(C)c2ccc(OC(=O)N(C)SN(C)C(=O)ON=C(C)SC)cc2)cc1`, for which the LD50 is 508 mg/kg.
With `CCSN(C)C(=O)Oc1cccc2c1OC(C)(C)C2`, the LD50 is 25 mg/kg.
